Reference: ChEMBL document CHEMBL1129022, “Synthesis and antibacterial activity of new tropone-substituted phenyloxazolidinone antibacterial agents 2. Modification of the phenyl ring the potentiating effect of fluorine substitution on in vivo activity” (1996)
Values after ≈ are worked out from the molar mass of the structure shown.

Key:
Format in all cases: functional
Enterococcus faecalis = assay: Compound was tested in vitro for antibacterial activity against Enterococcus faecalis UC 9217.
Mus musculus = assay: Amount of drug required (mg/kg body weight/dose) to cure 50% of infected mice subjected to a lethal systemic infection with Staphylococcus aureus UC 9213
[1] = system: Staphylococcus epidermidis; assay: Compound was tested in vitro for antibacterial activity against methicillin-resistant Staphylococcus epidermidis UC 12084.
Streptococcus pneumoniae = assay: Compound was tested in vitro for antibacterial activity against Streptococcus pneumoniae UC 9912.
Staphylococcus aureus [2] = assay: Compound was tested in vitro for antibacterial activity against methicillin-susceptible Staphylococcus aureus UC 9213.
Bacteroides fragilis = assay: Compound was tested in vitro for antibacterial activity against Bacteroides fragilis UC 12199.
Staphylococcus aureus [3] = assay: Compound was tested in vitro for antibacterial activity against methicillin-resistant Staphylococcus aureus UC 6685
Escherichia coli [4] = assay: Compound was tested in vitro for antibacterial activity against Escherichia coli extracts, using cell free prokaryotic transcription coupled translation (T/T) assay at 2 ug/mL
[5] = system: Mycobacterium tuberculosis; assay: Compound was tested in vitro for antibacterial activity against Mycobacterium tuberculosis H37Rv.
Escherichia coli [6] = assay: Compound was tested in vitro for antibacterial activity against Escherichia coli extracts, using cell free prokaryotic transcription coupled translation (T/T) assay.; settings: dose or concentration not given here

| Structure (SMILES) | MIC (Enterococcus faecalis) [µg/mL] | ED50 (Mus musculus) [mg/kg] | MIC [1] [µg/mL] | MIC (Streptococcus pneumoniae) [µg/mL] | MIC (Staphylococcus aureus [2]) [µg/mL] | MIC (Bacteroides fragilis) [µg/mL] | MIC (Staphylococcus aureus [3]) [µg/mL] | inhibition (Escherichia coli [4]) [%] | MIC [5] [µg/mL] | inhibition (Escherichia coli [6]) [%] |
| --- | --- | --- | --- | --- | --- | --- | --- | --- | --- | --- |
| COc1ccc(-c2ccc(N3CC(CNC(C)=O)OC3=O)cc2F)ccc1=O (centres undefined) | 1 (≈ 2.59 µM) | 7.7 | 0.5 (≈ 1.29 µM) | 0.25 (≈ 0.647 µM) | 1 (≈ 2.59 µM) |  |  |  |  |  |
| C#CCNc1ccc(-c2ccc(N3C[C@H](CNC(C)=O)OC3=O)cc2F)ccc1=O | 0.5 (≈ 1.22 µM) | 1.3 | 0.25 (≈ 0.611 µM) | 0.125 (≈ 0.305 µM) | 1 (≈ 2.44 µM) | 2 (≈ 4.88 µM) | 0.5 (≈ 1.22 µM) |  |  |  |
| COc1ccc(-c2ccc(N3CC(CNC(C)=O)OC3=O)cc2Cl)ccc1=O (centres undefined) | 2 (≈ 4.96 µM) | > 20 | 1 (≈ 2.48 µM) | 1 (≈ 2.48 µM) | 4 (≈ 9.93 µM) |  |  | 71 |  |  |
| COc1ccc(-c2ccc(N3CC(CNC(C)=O)OC3=O)cc2)ccc1=O (centres undefined) | 1 (≈ 2.71 µM) | 12.2 | 0.5 (≈ 1.36 µM) | 0.25 (≈ 0.679 µM) | 2 (≈ 5.43 µM) |  |  | 89 |  |  |
| COc1ccc(-c2ccc(N3CC(CNC(C)=O)OC3=O)cc2C(F)(F)F)ccc1=O (centres undefined) | 16 (≈ 36.7 µM) | > 20 | 4 (≈ 9.17 µM) | 4 (≈ 9.17 µM) | 32 (≈ 73.3 µM) |  |  | 58 |  |  |
| COc1ccc(-c2c(F)cc(N3C[C@H](CNC(C)=O)OC3=O)cc2F)ccc1=O | 1 (≈ 2.47 µM) | 2.3 | 0.5 (≈ 1.24 µM) | 0.25 (≈ 0.618 µM) | 1 (≈ 2.47 µM) | 8 (≈ 19.8 µM) | 0.5 (≈ 1.24 µM) |  |  |  |
| COc1ccc(-c2ccc(N3C[C@H](CNC(C)=O)OC3=O)cc2F)ccc1=O | 0.5 (≈ 1.29 µM) | 4.1 | 0.25 (≈ 0.647 µM) | 0.125 (≈ 0.324 µM) | 1 (≈ 2.59 µM) | 8 (≈ 20.7 µM) | 0.5 (≈ 1.29 µM) |  | < 1 |  |
| C/N=c1\ccc(-c2ccc(N3C[C@H](CNC(C)=O)OC3=O)cc2F)ccc1O | 0.25 (≈ 0.649 µM) |  | 0.125 (≈ 0.324 µM) | 0.125 (≈ 0.324 µM) | 0.5 (≈ 1.3 µM) | 2 (≈ 5.19 µM) | 0.25 (≈ 0.649 µM) |  |  |  |
| CN[C@H](CC(C)C)C(=O)N[C@H]1C(=O)N[C@@H](CC(N)=O)C(=O)N[C@H]2C(=O)N[C@H]3C(=O)N[C@H](C(=O)N[C@H](C(=O)O)c4cc(O)cc(O)c4-c4cc3ccc4O)[C@H](O)c3ccc(c(Cl)c3)Oc3cc2cc(c3O[C@@H]2O[C@H](CO)[C@@H](O)[C@H](O)[C@H]2O[C@H]2C[C@](C)(N)[C@H](O)[C@H](C)O2)Oc2ccc(cc2Cl)[C@H]1O [VANCOMYCIN] |  | 2.2 |  | 0.5 (≈ 0.345 µM) |  |  |  |  |  |  |
| COc1ccc(-c2c(F)cc(N3CC(CNC(C)=O)OC3=O)cc2F)ccc1=O (centres undefined) | 1 (≈ 2.47 µM) | 3.7 | 0.5 (≈ 1.24 µM) | 0.5 (≈ 1.24 µM) | 2 (≈ 4.95 µM) |  |  |  |  | 85 |
